Patent US20240415124A1, “HERBICIDAL COMPOSITION CONTAINING 3-(2-CHLORO-4-FLUORO-5-(3-METHYL-2,6-DIOXO-4-TRIFLUOROMETHYL-3,6-DIHYDROPYRIMIDIN-1(2H)-YL)PHENYL)-5-METHYL-4,5-DIHYDROISOXAZOLE-5-CARBOXYLIC ACID ETHYL ESTER AND GLUFOSINATE-P AND USE THEREOF” (NANTONG JIANGSHAN AGROCHEMICAL & CHEMICALS CO., LTD., priority 2022, published 2024)

Test system: Erigeron canadensis
Assay: Laboratory activity determination test (greenhouse pot test, stem and leaf spray, fresh weight inhibition, Gowing method)
Assay type: in vivo
Details: single pesticide
Procedure: (1) Test objective: Inhibitory effects of 3-(2-chloro-4-fluoro-5-(3-methyl-2,6-dioxo-4-trifluoromethyl-3,6-dihydropyrimidin-1(2H)-yl)phenyl)-5-methyl-4,5-dihydroisoxazole-5-carboxylic acid ethyl ester, glufosinate-P and different mixed compositions of the two pesticides on Erigeron canadensis under potting conditions in a greenhouse are determined, and a combined action of the two pesticides is evaluated. […] After a pesticide liquid was air-dried, a test material was placed in a greenhouse for cultivation. […] A method for evaluating the combined action of the two pesticides after compounding was used with reference to a Gowing method in Pesticides Guidelines for Laboratory Bioactivity Tests: Determining Combined Action of Mixtures.
Fresh weight inhibition rate %=(fresh weight of a control group—fresh weight of a treatment group)/fresh weight of a control group*100.
When E-E0 is greater than −10 and less than 10, an additive effect is achieved. When E-E0 is equal to or less than −10, an antagonistic effect is achieved.

SMILES | Measured control efficacy E (%) (dosage 1 g a.i./mu) | Measured control efficacy E (%) (dosage 2 g a.i./mu) | Measured control efficacy E (%) (dosage 3 g a.i./mu) | Measured control efficacy E (%) (dosage 4 g a.i./mu) | Measured control efficacy E (%) (dosage 5 g a.i./mu) | Measured control efficacy E (%) (dosage 8 g a.i./mu) | Measured control efficacy E (%) (dosage 12 g a.i./mu) | Measured control efficacy E (%) (dosage 16 g a.i./mu) | Measured control efficacy E (%) (dosage 20 g a.i./mu) | Measured control efficacy E (%) (dosage 24 g a.i./mu)
CCOC(=O)C1(C)CC(c2cc(-n3c(=O)cc(C(F)(F)F)n(C)c3=O)c(F)cc2Cl)=NO1 (stereo not shown) [3-(2-chloro-4-fluoro-5-(3-methyl-2,6-dioxo-4-trifluoromethyl-3,6-dihydropyrimidin-1(2H)-yl)phenyl)-5-methyl-4,5-dihydroisoxazole-5-carboxylic acid ethyl ester] | 33.82% | 44.46% | 72.89% | 80.22% | 89.09% |  |  |  |  | 
CP(=O)(O)CC[C@H](N)C(=O)O [Glufosinate-P] |  |  |  |  |  | 21.63% | 51.94% | 67.92% | 74.07% | 78.07%
